Like-named read-outs stand apart in the source and are kept apart here.
Assays:
[1] = molecular target: IRAK4 (Homo sapiens (Human), UniProt Q9NWZ3); test: IRAK4 Inhibition Assay; type: biochemical; details: ATP 500 μM; IRAK4 0.6 nM; 60 min at room temperature
Method: The assays were performed in U-bottom 384-well plates. […] The reaction was initiated by the combination of IRAK4 with substrates and test compounds. The reaction was incubated at room temperature for 60 min. and terminated by adding 45 μL of 35 mM EDTA to each sample. The reaction mixture was analyzed on the Caliper LABCHIP® 3000 (Caliper, Hopkinton, Mass.) by electrophoretic separation of the fluorescent substrate and phosphorylated product.

[2] = tested on: TLR2 induced IL-6 in peripheral blood mononuclear cells (PBMCs); test: PBMC TLR2 Induced IL-6 Assay; type: cell-based, human; details: for EC50: EC50 determinations are indicated with an asterisk, read-out: Cell EC50 (asterisk); for IC50: read-out: Cell IC50
How it was run: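 IL-6 ELISA of supernatants after a 5 h challenge with the TLR2 agonist lipoteichoic acid (10 μg/ml). Before stimulation, human PBMCs (250000 cells/well; RPMI, 10% heat-inactivated FCS) received compound for 30 min at 37° C. Values given as IC50 or EC50.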

[3] = Homo sapiens, PBMC, 5 h, human PBMCs, 10 μg/ml lipoteichoic acid for 5 hours, IL-6 by ELISA
[4] = human PBMCs, 10 μg/ml lipoteichoic acid for 5 hours, IL-6 by ELISA, value without asterisk
[5] = Homo sapiens, PBMC, 5 h, human PBMCs, 10 μg/ml lipoteichoic acid for 5 hours, IL-6 by ELISA, value without asterisk

Chain of IRAK4 (Q9NWZ3 whole entry, species assumed): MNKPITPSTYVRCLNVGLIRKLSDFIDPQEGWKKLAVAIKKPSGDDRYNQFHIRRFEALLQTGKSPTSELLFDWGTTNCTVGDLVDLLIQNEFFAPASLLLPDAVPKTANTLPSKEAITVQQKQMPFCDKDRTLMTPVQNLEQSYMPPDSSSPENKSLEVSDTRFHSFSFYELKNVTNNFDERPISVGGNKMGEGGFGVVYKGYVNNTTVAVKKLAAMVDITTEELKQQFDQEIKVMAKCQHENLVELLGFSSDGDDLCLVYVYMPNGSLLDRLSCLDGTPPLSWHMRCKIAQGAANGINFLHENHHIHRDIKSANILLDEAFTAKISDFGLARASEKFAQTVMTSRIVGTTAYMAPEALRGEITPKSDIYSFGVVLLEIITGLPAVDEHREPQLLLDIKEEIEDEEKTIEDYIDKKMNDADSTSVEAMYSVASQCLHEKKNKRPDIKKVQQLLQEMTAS

| SMILES | IC50 [1] [nM] | IC50 [2, 5] [nM] | other results |
| --- | --- | --- | --- |
| CC(C)Nc1cc(Nc2ccc3ncsc3c2)ncc1C(=O)NC1CCC2(CC1)NC(=O)NC2=O (stereo not shown) [Example 525, 6-(benzo[d]thiazol-6-ylamino)-N-(2,4-dioxo-1,3-diazaspiro[4.5]decan-8-yl)-4-(isopropylamino)nicotinamide] | 1.5 |  | EC50 [2, 3]: 131 nM |
| CC(C)(O)[C@H](F)CNC(=O)c1cnc(Nc2ncc3ccc(F)cc3n2)cc1NC1CCOCC1 [Example 495] | 11.9 |  | EC50 [2, 3]: 447 nM |
| CC(C)(O)[C@H](F)CNC(=O)c1cnc(Nc2ccc3ncsc3c2)cc1NC1CCC(F)C1 (single isomer, unassigned) [Example 363, 6-(benzo[d]thiazol-6-ylamino)-N-(2-fluoro-3-hydroxy-3-methylbutyl)-4-(3-fluorocyclopentylamino)nicotinamide] | 2.5 |  | IC50 [2, 4]: 87 nM |
| CC1CCCC1Nc1cc(Nc2ccc3ncsc3c2)ncc1C(=O)NC[C@@H](F)C(C)(C)O (stereo partly shown) [Example 104] | 2.5 | 350 |  |
| CC(C)(O)[C@H](F)CNC(=O)c1cnc(Nc2ccc3cnccc3n2)cc1NC1CC1 [Example 79] | 5.6 | 48 |  |
| CC(C)(O)[C@H](F)CNC(=O)c1cnc(Nc2ccc3ncoc3c2)cc1N[C@@H]1CCCC1F (stereo partly shown) [Example 354] | 4.4 | 402 |  |
| CC(C)(O)[C@H](F)CNC(=O)c1cnc(Nc2ccc3nsnc3c2)cc1NC1CCCC1 [Example 36] | 8.2 | 893 |  |
| CNC(=O)c1ccc(Nc2cc(Nc3ccc4ncsc4c3)ncc2C(=O)NC[C@@H](F)C(C)(C)O)cc1 [Example 319, (R)-6-(benzo[d]thiazol-6-ylamino)-N-(2-fluoro-3-hydroxy-3-methylbutyl)-4-(4-(methylcarbamoyl)phenylamino)nicotinamide] | 3 | 315 |  |
| CC(C)(O)[C@H](F)CNC(=O)c1cnc(Nc2ccn3nccc3c2)cc1NC1CCC(F)C1 (stereo partly shown) [Example 287] | 6.2 | 674 |  |
| CC(C)(O)[C@H](F)CNC(=O)c1cnc(Nc2ccc3ncsc3c2)cc1NC1CCC(F)C1 (single isomer, unassigned) [Example 364, 6-(benzo[d]thiazol-6-ylamino)-N-(2-fluoro-3-hydroxy-3-methylbutyl)-4-(3-fluorocyclopentylamino)nicotinamide] | 3.6 |  | IC50 [2, 4]: 92 nM |
| CC(C)(O)[C@H](F)CNC(=O)c1cnc(Nc2ccc3ncc(C#N)cc3n2)cc1NC1CCCOC1 (stereo partly shown) [Example 443] | 4.5 |  | IC50 [2, 4]: 125 nM |
| O=C(NC1CCC(O)CC1)c1cnc(Nc2ccc3ncsc3c2)cc1NC1CCCC1 (stereo not shown) [Example 157] | 4.2 | 836 |  |
| CC(C)Nc1cc(Nc2ccc3nnccc3c2)ncc1C(=O)NC[C@@H](F)C(C)(C)O [Example 119] | 21.7 | 587 |  |
| CC(C)(F)CNc1cc(Nc2ncc3ncsc3c2F)ncc1C(=O)NC1CCC(C(C)(C)O)CC1 (stereo not shown) [Example 489] | 8.2 |  | EC50 [2, 3]: 374 nM |
| CC(C)Nc1cc(Nc2ccc3ncsc3c2)ncc1C(=O)N[C@H]1CC[C@H](C(=O)NCC(C)(C)O)CC1 [Example 196] | 3.5 | 325 |  |
| CC(C)(C)CNc1cc(Nc2ccc3nccnc3c2)ncc1C(=O)NC[C@@H](F)C(C)(C)O [Example 103] | 13.4 | 411 |  |
| COc1ncnc2ccc(Nc3cc(NC4CC4)c(C(=O)NC[C@@H](F)C(C)(C)O)cn3)cc12 [Example 128] | 10.4 | 391 |  |
| CC(C)(F)CNc1cc(Nc2ccc3ncsc3n2)ncc1C(=O)NC[C@@H](F)C(C)(C)O [Example 314] | 2.7 | 115 |  |
| CC(C)(O)[C@H](F)CNC(=O)c1cnc(Nc2ccc3ncsc3c2)cc1NC1CCCOC1 (stereo partly shown) [Example 53] | 5.4 | 230 |  |
| CC(C)Nc1cc(Nc2ccc3ncsc3c2)ncc1C(=O)NC1CCC(=O)CC1 [Example 526, 6-(benzo[d]thiazol-6-ylamino)-4-(isopropylamino)-N-(4-oxocyclohexyl)nicotinamide] | 6.6 |  | EC50 [2, 3]: 423 nM |
| CC(C)(O)[C@H](F)CNC(=O)c1cnc(Nc2ccn3nccc3c2F)cc1N[C@@H]1CCCC1(F)F [Example 435] | 2.1 | 79 |  |
| CC(C)Nc1cc(Nc2ccc3ncsc3c2)ncc1C(=O)N[C@H]1CC[C@H](NC(=O)c2cccnc2)CC1 [Example 202] | 2.4 | 156 |  |
| CC(C)C(O)C(F)CNC(=O)c1cnc(Nc2ccc3ncsc3c2)cc1NC(c1ccccc1)C(O)CO (stereo not shown) [Example 27] | 3 | 86 |  |
| CC(C)Nc1cc(Nc2ccc3nonc3c2)ncc1C(=O)NC[C@@H](F)C(C)(C)O [Example 45] | 7.5 | 887 |  |
| Cc1cnc2ccc(Nc3cc(NC(C)C)c(C(=O)NC[C@@H](F)C(C)(C)O)cn3)nn12 [Example 277] | 3.6 | 180 |  |

| SMILES | IC50 [1] [nM] | IC50 [2, 5] [nM] | other results |
| --- | --- | --- | --- |
| CC(C)(O)[C@H](F)CNC(=O)c1cnc(Nc2ccc3ncc(F)cc3n2)cc1NC1CC1 [Example 429] | 2.1 | 128 |  |
| CC(C)(O)[C@H](F)CNC(=O)c1cnc(Nc2ncc3ncccc3n2)cc1NC1CCC(F)C1 (stereo partly shown) [Example 448] | 16.5 |  | IC50 [2, 4]: 47 nM |
| CC(C)(O)[C@H](F)CNC(=O)c1cnc(Nc2ccc3nccnc3c2)cc1NC1CCCC1O (stereo partly shown) [Example 338] | 17.1 | 493 |  |
| CC1COCCC1Nc1cc(Nc2ccc3ncsc3c2)ncc1C(=O)NC[C@@H](F)C(C)(C)O (stereo partly shown) [Example 232] | 35.7 |  | IC50 [2, 4]: 697 nM |
| Cc1nc2cc(F)c(Nc3cc(NC4CCCC4F)c(C(=O)NC[C@@H](F)C(C)(C)O)cn3)cc2s1 (stereo partly shown) [Example 347] | 3.2 | 327 |  |
| CNC(=O)[C@H]1CC[C@H](NC(=O)c2cnc(Nc3ccc4ncsc4c3)cc2NC2CCC2)CC1 [Example 504] | 4.7 | 496 |  |
| CC(C)(O)[C@H](F)CNC(=O)c1cnc(Nc2ccc3nonc3c2)cc1NC1CCC1 [Example 98] | 7.2 | 165 |  |
| CC(C)Nc1cc(Nc2ccc3ncsc3c2)ncc1C(=O)NC12CCC(C(=O)NCC(C)(C)O)(CC1)CC2 [Example 226] | 3.4 | 274 |  |
| CC(C)(O)[C@H](F)CNC(=O)c1cnc(Nc2nc3ccnn3cc2F)cc1NC1CCCCC1(F)F (stereo partly shown) [Example 496] | 6.4 |  | EC50 ([2]; human PBMCs, 10 μg/ml lipoteichoic acid for 5 hours, IL-6 by ELISA): 91 nM |
| CC(C)Nc1cc(Nc2ccc3ncsc3c2)ncc1C(=O)NC[C@@H](F)CO [Example 5, (R)-6-(benzo[d]thiazol-6-ylamino)-N-(2-fluoro-3-hydroxypropyl)-4-(isopropylamino)nicotinamide] | 9.6 | 484 |  |
| CCC(O)(CC)[C@H](F)CNC(=O)c1cnc(Nc2ccn3nccc3n2)cc1NCC(C)(C)F [Example 389] | 10.4 | 574 |  |
| CC(C)Nc1cc(Nc2ccc3ncccc3n2)ncc1C(=O)NC[C@@H](F)C(C)(C)O [Example 123] | 3.6 | 271 |  |
| CC(C)Nc1cc(Nc2ccc3ncc(F)cc3n2)ncc1C(=O)NC[C@@H](F)C(C)(C)O [Example 427] | 1.5 | 42 |  |
| CC(C)(O)[C@H](F)CNC(=O)c1cnc(Nc2ccc3ncsc3c2)cc1NC1CCC(F)C1 (single isomer, unassigned) [Example 362, 6-(benzo[d]thiazol-6-ylamino)-N-(2-fluoro-3-hydroxy-3-methylbutyl)-4-(3-fluorocyclopentylamino)nicotinamide] | 2.9 |  | IC50 [2, 4]: 44 nM |
| CC(C)Nc1cc(Nc2cc3nccnc3cc2F)ncc1C(=O)NC[C@@H](F)C(C)(C)O [Example 501] | 4.5 |  | EC50 [2, 3]: 209 nM |
| CC(C)Nc1cc(Nc2ccc3ncsc3c2)ncc1C(=O)NC[C@@H](F)C(O)C1CC1 (stereo partly shown) [Example 15] | 5.2 | 541 |  |
| CC(C)(F)CNc1cc(Nc2cc3scnc3cn2)ncc1C(=O)NC[C@@H](F)C(C)(C)O [Example 316] | 4.7 | 429 |  |
| CC(C)(O)[C@H](F)CNC(=O)c1cnc(Nc2ccc3ncsc3c2)cc1NC1CC(F)(F)C1 [Example 121] | 2 | 345 |  |
| CCCCNc1cc(Nc2ccc3ncsc3c2)ncc1C(=O)NC[C@@H](F)C(C)(C)O [Example 160] | 4.8 | 109 |  |
| CCC(O)(CC)[C@H](F)CNC(=O)c1cnc(Nc2ccc3ncsc3c2)cc1NCC(C)(C)F [Example 317] | 1.7 | 374 |  |
| CC(C)(O)[C@H](F)CNC(=O)c1cnc(Nc2nc3ccnn3cc2F)cc1NC1CCC(F)C1 (stereo partly shown) [Example 409] | 3 |  | IC50 [2, 4]: 207 nM |
| CC(C)(F)CNc1cc(Nc2ccn3ncc(Cl)c3n2)ncc1C(=O)NC[C@@H](F)C(C)(C)O [Example 264] | 4.6 | 384 |  |
| CC(C)Nc1cc(Nc2ccc3ncsc3c2)ncc1C(=O)N[C@H]1CC[C@H](C(N)=O)CC1 [Example 228] | 2.4 | 392 |  |
| CC(C)Nc1cc(Nc2ccc3ncsc3c2)ncc1C(=O)NCC[C@@H](C)NC(=O)C1CCCC1 [Example 184] | 1.9 |  | IC50 ([2]; Homo sapiens, PBMC, 5 h): 215 nM |
| CC(C)Nc1cc(Nc2ccc3ncsc3c2)ncc1C(=O)NCC[C@@H](C)NC(=O)CC1CCOCC1 [Example 189] | 3.4 | 300 |  |
